{"source": "patent US20200010903A1", "about": "“AAV-Mediated Direct In vivo CRISPR Screen in Glioblastoma” (YALE UNIVERSITY, priority 2017, published 2020)", "format_in_all_cases": "cell-based, mouse", "key": {"Rb1 GBM cells": {"system": "Rb1 GBM cells", "assay": "RNA-seq differential expression, TMZ vs DMSO", "conditions": "1 mM TMZ vs DMSO, 48 h", "experimental": "(§1) Temozolomide (TMZ) treatment, Cell viability assay, and RNAseq: After 7-9 days' culture under puromycin selection, lentiviruses-infected Nf1 and Rb1 knockout tumor cells were plated in triplicates into 96-well plate at a density of 2.5×10^3 cells per well, and ˜5×10^6 cells were collected at the same time and used for cutting efficiency analysis. One day after plating, either TMZ or DMSO was added at a concentration of 10 μM, 100 μM, 500 μM, 1 mM, and 2 mM. After 3 days of drug/vehicle treatment, cell viability was measured using CellTiter Glo (Promega) according to the manufactures' protocol. Briefly, the CellTiter Glo was equilibrated at room temperature for 1 h before use. The media of 96-well plates was aspirated, and then 50 μL fresh DMEM+10% FBS and 50 μL CellTiter Glo was added. The luminescent signals were readout using EnVision plate reader (PerkinElmer). For RNAseq samples preparation, cell lines harboring specific gene knockouts were cultured for 7-9 days under the selection pressure of puromycin, and then plated into 6-well plates at a density of 2×10^5 cells per well in triplicates. 24 h after plating, 1 mM TMZ or DMSO in fresh DEME+10% FBS was added and cultured for another 48 h. Then, cellular RNA of control or treated cells were extracted by adding 350 μL TRIzol Reagent (Invitrogen) directly into 6-well plates to lyse the cells, followed by gently shaking the plates and incubation for 5-10 min to complete and lysis and homogenization. Then, 70 μL chloroform was added, vigorously mixed, and centrifuged at 16,000 g for 15 min. Transfer the RNA containing aqueous phase to a new tube and further purified using RNeasy mini kit (Qiagen). After eluting RNA from column using Nuclease free water, the concentrations of sample RNA were normalized into 150-300 ng/uL for RNAseq.\n(§2) Transcriptome profiling of different driver combinations in the presence and absence of chemotherapy: Mixtures of five sgRNAs targeting each gene were cloned as sgRNA minipool into the same astrocyte-specific AAV-CRISPR vector. After packaging, AAV minipools were stereotaxically injected into the lateral ventricle of LSL-Cas9 mice. Cell lines were derived from mouse GBMs by single-cell isolation, plating and culture in DMEM media. Additional driver mutations were introduced by lentiCRISPR where applicable. GBM cells with different drivers were treated with DMSO or TMZ for 48 h, and harvested for mRNA-seq for transcriptome profiling. Briefly, total RNA was extracted from cancer cells derived from AAV-CRISPR minipools induced GBM treated with DMSO or TMZ, using commercially available kits (Qiagen/Thermofisher). PolyA-mRNA library was constructed using Illumina TruSeq mRNA library prep kit, and sequenced on Illumina Hiseq 2500 and/or Hiseq 4000 platform.\n(§3) RNA-seq differential expression analysis: Strand-specific single-end RNA-seq read files were analyzed to obtain transcript level counts using Kallisto, with the settings --rf-stranded -b 100. The counts were subsequently passed to the tximport R package to collapse to gene level counts. Pairwise differential expression analysis between groups was then performed using edgeR with default settings."}, "Rb1; Pten GBM cells": {"system": "Rb1; Pten GBM cells", "assay": "RNA-seq differential expression, TMZ vs DMSO", "conditions": "1 mM TMZ vs DMSO, 48 h", "experimental": "as §1, §2, §3"}, "Rb1; Zc3h13 GBM cells": {"system": "Rb1; Zc3h13 GBM cells", "assay": "RNA-seq differential expression, TMZ vs DMSO", "conditions": "1 mM TMZ vs DMSO, 48 h", "experimental": "as §1, §2, §3"}, "[1]": {"system": "Rb1, Rb1; Pten, and Rb1; Zc3h13 GBM cells", "assay": "RNA-seq TMZ vs DMSO, overlap of differentially expressed genes between genotypes", "experimental": "as §1\nas §2, with “Briefly, total RNA was extracted from cancer cells derived from AAV-CRISPR minipools induced GBM treated with DMSO or TMZ, using commercially available kits (Qiagen/Thermofisher). PolyA-mRNA library was constructed using Illumina TruSeq mRNA library prep kit, and sequenced on Illumina Hiseq 2500 and/or Hiseq 4000 platform.” left out\nRNA-seq differential expression analysis: Strand-specific single-end RNA-seq read files were analyzed to obtain transcript level counts using Kallisto, with the settings --rf-stranded -b 100. […]"}, "[2]": {"conditions": "shared by Rb1, Rb1, Pten, Rb1, Zc3h13"}}}
{"smiles": "Cn1nnc2c(C(N)=O)ncn2c1=O", "note": "[TMZ, temozolomide]", "values": [{"measurement": "genes significantly higher in DMSO-treated cells (TMZ-reduced genes)", "setting": "Rb1 GBM cells", "value": 332, "unit": "genes"}, {"measurement": "genes significantly higher in TMZ-treated cells (TMZ-induced genes)", "setting": "Rb1 GBM cells; adjusted p<0.05, log fold change ≥1 or ≤−1", "value": 352, "unit": "genes"}, {"measurement": "genes significantly higher in DMSO-treated cells", "setting": "Rb1; Pten GBM cells", "value": 313, "unit": "genes"}, {"measurement": "genes significantly higher in TMZ-treated cells", "setting": "Rb1; Pten GBM cells", "value": 345, "unit": "genes"}, {"measurement": "genes significantly higher in DMSO-treated cells", "setting": "Rb1; Zc3h13 GBM cells", "value": 166, "unit": "genes"}, {"measurement": "genes significantly higher in TMZ-treated cells", "setting": "Rb1; Zc3h13 GBM cells", "value": 703, "unit": "genes"}, {"measurement": "genes significantly reduced upon TMZ treatment in Rb1; Zc3h13 and Rb1; Pten cells, but not in Rb1 cells", "setting": "[1]", "value": 37, "unit": "genes"}, {"measurement": "genes upregulated upon TMZ treatment in Rb1; Zc3h13 and Rb1; Pten cells, but not in Rb1 cells", "setting": "[1]", "value": 60, "unit": "genes"}, {"measurement": "genes downregulated among all 3 genotypes upon TMZ treatment", "setting": "[1]; [2]", "value": 69, "unit": "genes"}, {"measurement": "genes upregulated in all 3 groups upon TMZ treatment", "setting": "[1]; [2]", "value": 42, "unit": "genes"}]}
